Data: publication PMC2962730 (Journal of neurochemistry, 2010)
Changes are numbered by the printed parent chain.

Tests used:
hVAChT A321F = molecular target: T1, hVAChT A321F (Homo sapiens, UniProt Q16572, A321F); assay: [3H]vesamicol saturation binding; details: pH 7.4
T1 sequence (Q16572 1-532 A321F): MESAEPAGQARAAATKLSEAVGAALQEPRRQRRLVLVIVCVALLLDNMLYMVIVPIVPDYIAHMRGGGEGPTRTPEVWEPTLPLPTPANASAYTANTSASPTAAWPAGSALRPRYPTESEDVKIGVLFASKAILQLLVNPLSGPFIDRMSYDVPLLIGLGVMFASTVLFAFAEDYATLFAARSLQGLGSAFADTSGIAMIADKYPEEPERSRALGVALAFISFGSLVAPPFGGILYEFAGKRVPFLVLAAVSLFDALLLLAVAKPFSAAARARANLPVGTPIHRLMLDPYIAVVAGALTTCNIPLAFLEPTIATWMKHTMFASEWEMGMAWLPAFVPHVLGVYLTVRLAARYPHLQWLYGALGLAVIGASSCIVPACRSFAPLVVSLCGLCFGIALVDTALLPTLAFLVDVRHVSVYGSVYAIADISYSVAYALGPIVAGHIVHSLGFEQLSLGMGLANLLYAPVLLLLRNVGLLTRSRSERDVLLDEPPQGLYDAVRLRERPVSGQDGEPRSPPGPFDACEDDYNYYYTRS

hVAChT C388A = molecular target: T2, hVAChT C388A (Homo sapiens, UniProt Q16572, C388A); assay: [3H]vesamicol saturation binding; details: pH 7.4
T2 sequence (Q16572 1-532 C388A): T1 sequence (Q16572 1-532 A321F) with F321A, C388A

hVAChT C391A [1] = molecular target: T3, hVAChT C391A (Homo sapiens, UniProt Q16572, C391A); assay: [3H]vesamicol saturation binding; details: pH 7.4
T3 sequence (Q16572 1-532 C391A): T1 sequence (Q16572 1-532 A321F) with F321A, C391A

hVAChT Y60A = molecular target: T4, hVAChT Y60A (Homo sapiens, UniProt Q16572, Y60A); assay: ACh equilibrium binding by competition against [3H]vesamicol
T4 sequence (Q16572 1-532 Y60A): T1 sequence (Q16572 1-532 A321F) with Y60A, F321A

hVAChT C391A [2] = molecular target: T3, hVAChT C391A; assay: as above
hVAChT A334F = molecular target: T5, hVAChT A334F (Homo sapiens, UniProt Q16572, A334F); assay: [3H]ACh transport; assay type: biochemical
T5 sequence (Q16572 1-532 A334F): T1 sequence (Q16572 1-532 A321F) with F321A, A334F

SMILES | Bmax, maximal specific [3H]vesamicol binding (VAChT expression level) (hVAChT A321F) [pmol/mg] | Bmax, maximal specific [3H]vesamicol binding (VAChT expression level) (hVAChT C388A) [pmol/mg] | Bmax, maximal specific [3H]vesamicol binding (VAChT expression level) (hVAChT C391A [1]) [pmol/mg] | Kd (hVAChT Y60A) [mM] | FHA, fraction of the ACh sites that have high affinity (hVAChT Y60A; Y60A hVAChT, pH 7.4) | Kd (hVAChT C391A [2]) [mM] | FHA, fraction of the ACh sites that have high affinity (hVAChT C391A [2]; C391A hVAChT, pH 7.4) | ACh transport rate relative to wild-type (as fast as) (hVAChT A334F; A334F hVAChT vs wild-type) | Vmax/Bmax, ACh transport normalized to Bmax (hVAChT A334F; A334F hVAChT, pH 7.4) [min⁻¹] | Km (hVAChT A334F; read-out: KM, Michaelis-Menten constant for ACh transport, A334F hVAChT, pH 7.4) [mM]
O[C@@H]1CCCC[C@H]1N1CCC(c2ccccc2)CC1 (racemic) [vesamicol, ( )-trans-2-(4-phenylpiperidino)cyclohexanol] | 21 ± 1 | 59 ± 1 | 34 ± 3 |  |  |  |  |  |  | 
CC(=O)OCC[N+](C)(C)C [ACh, acetylcholine] |  |  |  | 8.2 ± 0.7 | 0.92 ± 0.02 | 10 ± 3 | 0.71 ± 0.07 | about one-half | 3.6 ± 0.8 | 3 ± 1.3
